Data from patent US6855504B2, “In vivo high throughput toxicology screening method” (priority 1999, dated 2005).
Read-outs that look alike come from different tables or passages of the source.

Columns and labels:
Format in all cases: in vivo
Fly = tested on: Fly
Protocol: The chemical is dissolved in water at or near its saturation point. Serial dilutions of this stock solution are used to rehydrate instant fly media (Fisher Scientific). Specifically, one toxicity assay will comprise of instant fly media rehydrated with pure stock solution of a chemical, while another will be rehydrated with a 10% solution of the chemical (in water). This format will be used to generate data over a 4 to 5 log dose range for each chemical tested.
A known quantity of embryos, typically between 40-50, is used as the input. Specifically, 40 to 50 embryos are counted and placed in the receptacle that contains the media/chemical mixture to be tested. The embryos may be counted manually or by automation (e.g., liquid suspension of embryos flowing through a diode). The larva feed on the media/chemical mixture. All aspects of development from larva stage to adult must proceed normally in the presence of the chemical. The only food and water source available to the larva and flies contains the chemical. […] Specifically, Iron, Copper, and zinc have been selected. Sensitive and accurate kits are commercially available to analyze these chemicals down to a concentration of 1 part per million. This will assign quantitative analyses to determine variability between larva in a test receptacle and between larva in different receptacles.
The developing larva and pupa are examined for normal growth and development. Then the adult flies are analyzed for lethality, sterility, developmental defects, and life span alterations. Lethality is determined by dividing the number of adult flies that eclose by the total number of embryos that were placed in the receptacle. Sterility is examined for both males and females by crossing them to normal flies. […] Finally the flies are allowed to live the natural span of their life to determine whether an effect occurred to either shorten or lengthen the average lifespan of the fly.
(§1) Using standard protocols, including the ones described above for administration to flies, a variety of agents were administered at different doses to mice, rats and flies and the LD for each agent was compared.

Rat = tested on: Rat
Protocol: as §1

Mouse = tested on: Mouse
Protocol: as §1

fruit fly = test: AntiToxicity screen: fly survival with toxins with and without EDTA; conditions: yeast paste: None
Description: This binding can occur in vitro or in vivo. In vivo binding can lead to neutralizing the toxicity of heavy metals to animals.

N[C@@H](Cc1ccc(O)c(O)c1)C(=O)O [L-dopa]
Fly (oral LD50 mg/ml) (Fly; oral, chemical in fly media): .7 mg/mL | Rat (oral LD50 mg/ml) (Rat; oral): 1780 mg/mL | Mouse (oral LD50 mg/ml) (Mouse; oral): 2363 mg/mL

O.O.O.O.O.O.O.O.O.O.[Na+].[Na+].[O-]B1OB2OB([O-])OB(O1)O2 [sodium borate]
Fly (oral LD50 mg/ml) (Fly; oral, chemical in fly media): 6.5 mg/mL | Rat (oral LD50 mg/ml) (Rat; oral): 2660 mg/mL | Mouse (oral LD50 mg/ml) (Mouse; oral): 2000 mg/mL

O=S1(=O)OC(c2cc(Br)c(O)c(Br)c2)(c2cc(Br)c(O)c(Br)c2)c2ccccc21 [bromophenol blue]
Fly (oral LD50 mg/ml) (Fly; oral, chemical in fly media): 10 mg/mL

NC(=O)c1cccnc1 [niacinamide]
Fly (oral LD50 mg/ml) (Fly; in vivo, po): 5 mg/mL | Rat (oral LD50 mg/ml) (Rat; in vivo, po): 3500 mg/mL | Mouse (oral LD50 mg/ml) (Mouse; in vivo, po): 2500 mg/mL

[Cl-].[Li+] [lithium chloride]
Fly (oral LD50 mg/ml) (Fly; oral, chemical in fly media): .4 mg/mL | Rat (oral LD50 mg/ml) (Rat; oral): 526 mg/mL | Mouse (oral LD50 mg/ml) (Mouse; oral): 1165 mg/mL

[N-]=[N+]=[N-] [sodium azide]
Fly (oral LD50 mg/ml) (Fly; oral, chemical in fly media): .05 mg/mL | Rat (oral LD50 mg/ml) (Rat; oral): 27 mg/mL | Mouse (oral LD50 mg/ml) (Mouse; oral): 27 mg/mL

Clc1cccc(Cl)c1N=C1NCCN1 [clonidine]
Fly (oral LD50 mg/ml) (Fly; in vivo, po): .07 mg/mL | Rat (oral LD50 mg/ml) (Rat; in vivo, po): 126 mg/mL | Mouse (oral LD50 mg/ml) (Mouse; in vivo, po): 135 mg/mL

[Zn] [Zinc]
% survival (fruit fly; fly food: 2 mM Zinc): 50% | % survival (fruit fly; fly food: 6.0 mM Zinc): 0%

CN(C)c1ccncc1 [4-dimethyl aminopyridine]
Fly (oral LD50 mg/ml) (Fly; oral, chemical in fly media): .15 mg/mL | Rat (oral LD50 mg/ml) (Rat; oral): 250 mg/mL

COP(=O)(OC)C(O)C(Cl)(Cl)Cl (stereo not shown) [metrifonate]
toxicity category in flies (Fly; flies, oral LD50 category): high toxic range | Fly (oral LD50 mg/ml) (Fly; oral, chemical in fly media): .04 mg/mL | Rat (oral LD50 mg/ml) (Rat; oral): 560 mg/mL | toxicity category in rats (Rat; rats, oral LD50 category): moderate toxicity | toxicity category in mice (Mouse; mice, oral LD50 category): moderate toxicity | Mouse (oral LD50 mg/ml) (Mouse; oral): 300 mg/mL

[Cu] [Copper]
% survival (fruit fly; fly food: 0.4 mM Copper): 50% | % survival (fruit fly; fly food: 1.1 mM Copper): 0%

[Cl][Cd][Cl] [cadmium chloride]
Fly (oral LD50 mg/ml) (Fly; oral, chemical in fly media): .1 mg/mL | Rat (oral LD50 mg/ml) (Rat; oral): 88 mg/mL | Mouse (oral LD50 mg/ml) (Mouse; oral): 60 mg/mL

Nc1ccccc1N [phenylenediamine]
Fly (oral LD50 mg/ml) (Fly; oral, chemical in fly media): .2 mg/mL | Rat (oral LD50 mg/ml) (Rat; oral): 510 mg/mL | Mouse (oral LD50 mg/ml) (Mouse; oral): 366 mg/mL
